Patent US7002015B2, “3-Thia-4-arylquinolin-2-one derivatives as smooth muscle relaxants” (Bristol-Myers Squibb Company, priority 2003, dated 2006)

Columns and labels:
Format in all cases: cell-based
[1] = tested on: cloned mammalian (mSlo or hSlo) BK; assay: Assay for BK channel openers: two-electrode voltage clamp of BK-mediated outward current in Xenopus oocytes; conditions: percent of control IBTX-sensitive current at +140 mV; 20 μM (or as otherwise indicated); 5–10 oocytes
Method: The ability of the compounds of the invention to open BK channels and increase whole-cell outward (K^+) BK-mediated currents was assessed under voltage-clamp conditions by determining their ability to increase cloned mammalian (mSlo or hSlo) BK-mediated outward current heterologously expressed in Xenopus oocytes [Butler, A., et al., Science 1993, 261, 221–224; Dworetzky, S. I., et al., Mol. Brain Res. 1994, 27, 189–193; Gribkoff, V. K., et al., Mol. Pharmacol. 1996, 50, 206–217]. The two BK constructs employed represent nearly structurally identical homologous proteins, and have proven to be pharmacologically indistinguishable in our tests. To isolate BK current from native (background, non-BK) current, the specific and potent BK channel-blocking toxin iberiotoxin (IBTX) [Galvez, A., et al., J. Biol. Chem. 1990, 265, 11083–11090] was employed at a supramaximal concentration, e.g., 50–100 nanomolar (“nM”). The relative contribution of BK channel-mediated current to total outward current was determined by subtraction of the current remaining in the presence of IBTX (non-BK current) from the current profiles obtained in all other experimental conditions (control, drug, and wash) [Gribkoff, V. K. et al., Mol. Pharmacol. 1996, 50, 206–217]. […] All compounds were tested in 5–10 oocytes and are reported at the indicated concentration of 20 micromolar (“μM”) (or as otherwise indicated); the effect of the selected compounds of the invention on BK current was expressed as the percent of control IBTX-sensitive current at a single transmembrane voltage (+140 mV) and is listed in Table 1. Recordings were accomplished using standard two-electrode voltage clamp techniques [Stuhmer, W., et al., Methods in Enzymology, 1992, 207, 319–339]; voltage-clamp protocols consisted of 500–750 milliseconds (“ms”) duration step depolarizations, from a holding potential of −60 mV, to a final voltage up to +140 mV in 20 mV steps. The experimental media (modified Barth's solution) consisted of millimolar (“mM”): NaCl (88), NaHCO3 (2.4), KCl (1.0), HEPES (10), MgSO4 (0.82), Ca(NO3)2 (0.33), CaCl2 (0.41); pH 7.5.

[2] = tested on: rabbit corpus cavernosum tissue; assay: Rabbit corpus cavernosum strips: relaxation of phenylephrine-induced force; conditions: Oryctolagus cuniculus, inhibition of phenylephrine (3 μM)-induced force as compared to vehicle control, read-out: % Inhibition of force (RCC strips)
Method: The ability of the compounds of the invention to relax rabbit corpus cavernosum tissue as a model for the treatment of erectile dysfunction is described as follows. New Zealand white rabbits (3.4–3.7 kg) were euthanized by sodium pentobarbital (100 mg/kg) overdose. The penis from each animal was rapidly removed and immersed in a cold oxygenated modified Krebs Henseleit bicarbonate buffer. The penis' outer tunica was removed and the corpus cavernosum smooth muscle obtained and cut into strips approximately 3–5 mm long. The strips were suspended in tissue baths containing physiological salt solution (see above), and allowed to equilibrate for at least one hour under resting tension of 1.0 gram. Isometric force was measured as described above. Tissue strips were stimulated with the α-agonist phenylephrine (3 μM) and allowed to reach a steady level of force prior to the addition of test compounds. The results are expressed as the percentage inhibition of phenylephrine-induced force as compared to vehicle control.

[3] = tested on: rat small intestine tissue; assay: Rat small intestine (ileum) segments: inhibition of nifedipine-sensitive force; parameters: concentration or dose not given beside the values; conditions: integral of nifedipine-sensitive force pre- and 30 min post-compound
Source text: The ability of the compounds of the invention to relax rat small intestine tissue as a model for the treatment of irritable bowel syndrome is described as follows. Male rats (Harlan, Sprague Dawley, 250–350 g) were sacrificed by decapitation. A portion of small intestine (ileum) was removed and the attached connective tissues and intestinal contents removed. The ileum was cut into segments of ≦1 cm in length. The segments were mounted longitudinally between fixed hooks in organ baths containing warm (37° C.) physiological salt solution (composition in mM: NaCl 118.4, KCl 4.7, KH2PO4 1.2, MgSO4 1.2, CaCl2 1.8, Glucose 10.1, NaHCO3 25; gassed with 95% O2/5% CO2, pH 7.4). A stable tension of ˜1.5 g was maintained in the tissue segments during the equilibration period of 45 minutes. Changes in muscle tension were measured with isometric force transducers (Grass, FT-03C) and recorded using AcqKnowledge data acquisition system (AcqKnowledge for MP100WS, Biopac Systems Inc., Goleta, Calif.). Compound or vehicle was added in the baths for 30 minutes. “Zero” active force was established at the end of the experiment using nifedipine (20 μM). The effects of compounds or vehicle on force was determined by measuring the integral of nifedipine-sensitive force (including resting tone and spontaneous contractions) pre- and 30 min post-compound (or vehicle) addition. Results are expressed as the percentage inhibition of force. DMSO vehicle inhibited force (integral) by −0.6±3.0% (n=25).

Compound	% MaxiK opening* [1] [%]	inhibition [2] [%]	% Inhibition of force (RSI strips) [3] [%]
CN1CCC(N(C)CCCC(=O)CSc2c(-c3cc(Cl)ccc3O)c3cc(C(F)(F)F)ccc3[nH]c2=O)C1 (stereo not drawn) [Example 68, 4-(5-chloro-2-hydroxyphenyl)-3-[[5-[methyl(1-methyl-3-pyrrolidinyl)amino]-2-oxopentyl]thio]-6-(trifluoromethyl)-2(1H)-quinolinone]	226	–	–
CN(C)C1CCN(C(=O)CSc2c(-c3cc(Cl)ccc3O)c3cc(C(F)(F)F)ccc3[nH]c2=O)CC1 [Example 5, 4-(5-Chloro-2-hydroxy-phenyl)-3-[2-(4-dimethylamino-piperidin-1-yl)-2-oxo-ethylsulfanyl]-6-trifluoromethyl-1H-quinolin-2-one]	286	34.5	58.5
CN(C)CCCN(C)CCC(=O)CSc1c(-c2cc(Cl)ccc2O)c2cc(C(F)(F)F)ccc2[nH]c1=O [Example 35, 4-(5-Chloro-2-hydroxyphenyl)-3-[[4-[[3-(dimethylamino)propyl]methylamino]-2-oxobutyl]thio]-6-(trifluoromethyl)-2(1H)quinolinone]	178	–	–
O=C(CCN1CCC(O)CC1)CSc1c(-c2cc(Cl)ccc2O)c2cc(C(F)(F)F)ccc2[nH]c1=O [Example 30, 4-(5-Chloro-2-hydroxyphenyl)-3-[[4-(4-hydroxy-1-piperidinyl)-2-oxobutyl]thio]-6-(trifluoromethyl)-2(1H)-quinolinone]	235	–	–
CN1CCN(C(=O)CSc2c(-c3cc(Cl)ccc3O)c3cc(C(F)(F)F)ccc3[nH]c2=O)CC1 [Example 84, 1-[[[4-(5-Chloro-2-hydroxyphenyl)-1,2-dihydro-2-oxo-6-(trifluoromethyl)-3-quinolinyl]thio]acetyl]-4-methylpiperazine]	422	14.4	–
CN1CCN(CCC(=O)CSc2c(-c3cc(Cl)ccc3O)c3cc(C(F)(F)F)ccc3[nH]c2=O)CC1 [Example 3, 4-(5-Chloro-2-hydroxy-phenyl)-3-[4-(4-methyl-piperazin-1-yl)-2-oxo-butylsulfanyl]-6-trifluoromethyl-1H-quinolin-2-one]	550	–	–
O=C(CCCN1CCC(N2CCCCC2)CC1)CSc1c(-c2cc(Cl)ccc2O)c2cc(C(F)(F)F)ccc2[nH]c1=O [Example 72, 3-[(5-[1,4′-Bipiperidin]-1′-yl-2-oxopentyl)thio]-4-(5-chloro-2-hydroxyphenyl)-6-(trifluoromethyl)-2(1H)-quinolinone]	298	–	–
O=C(CCN1CCCC1)CSc1c(-c2cc(Cl)ccc2O)c2cc(C(F)(F)F)ccc2[nH]c1=O [Example 2, 4-(5-Chloro-2-hydroxy-phenyl)-3-(2-oxo-4-pyrrolidin-1-yl-butylsulfanyl)-6-trifluoromethyl-1H-quinolin-2-one]	335	30	–
CC1CCCN(CCCC(=O)CSc2c(-c3cc(Cl)ccc3O)c3cc(C(F)(F)F)ccc3[nH]c2=O)C1 (stereo not drawn) [Example 65, 4-(5-Chloro-2-hydroxyphenyl)-3-[[5-(3-methyl-1-piperidinyl)-2-oxopentyl]thio]-6-(trifluoromethyl)-2(1H)-quinolinone]	271	–	–
NC(=O)C1CCN(C(=O)CSc2c(-c3cc(Cl)ccc3O)c3cc(C(F)(F)F)ccc3[nH]c2=O)CC1 [Example 105, 1-[[[4-(5-Chloro-2-hydroxyphenyl)-1,2-dihydro-2-oxo-6-(trifluoromethyl)-3-quinolinyl]thio]acetyl]-4-piperidinecarboxamide]	203	67	62
O=C(CSc1c(-c2cc(Cl)ccc2O)c2cc(C(F)(F)F)ccc2[nH]c1=O)N1CCN(CCOCCO)CC1 [Example 98, 2-[2-[4-[[[4-(5-Chloro-2-hydroxyphenyl)-1,2-dihydro-2-oxo-6-(trifluoromethyl)-3-quinolinyl]thio]acetyl]-1-piperazinyl]ethoxy]ethanol]	205	17	9
CC1CCN(CCCC(=O)CSc2c(-c3cc(Cl)ccc3O)c3cc(C(F)(F)F)ccc3[nH]c2=O)CC1 [Example 66, 4-(5-Chloro-2-hydroxyphenyl)-3-[[5-(4-methyl-1-piperidinyl)-2-oxopentyl]thio]-6-(trifluoromethyl)-2(1H)-quinolinone]	213	–	–
CC(=O)N1CCN(CCCC(=O)CSc2c(-c3cc(Cl)ccc3O)c3cc(C(F)(F)F)ccc3[nH]c2=O)CC1 [Example 63, 1-Acetyl-4-[5-[[4-(5-chloro-2-hydroxyphenyl)-1,2-dihydro-2-oxo-6-(trifluoromethyl)-3-quinolinyl]thio]-4-oxopentyl]piperazine]	284	–	–
O=C(CCN1CCCCC1)CSc1c(-c2cc(Cl)ccc2O)c2cc(C(F)(F)F)ccc2[nH]c1=O [Example 7, 4-(5-Chloro-2-hydroxyphenyl)-3-[[2-oxo-4-(1-piperidinyl)butyl]thio]-6(trifluoromethyl)-2(1H)-quinolinone]	199	–	29
O=C(CCN1CCN(CCO)CC1)CSc1c(-c2cc(Cl)ccc2O)c2cc(C(F)(F)F)ccc2[nH]c1=O [Example 21, 4-(5-Chloro-2-hydroxyphenyl)-3-[[4-[4-(2-hydroxyethyl)-1-piperazinyl]-2-oxobutyl]thio]-6-(trifluoromethyl)-2(1H)-quinolinone]	241	–	–
CCOC(=O)CN1CCN(C(=O)CSc2c(-c3cc(Cl)ccc3O)c3cc(C(F)(F)F)ccc3[nH]c2=O)CC1 [Example 107, 4-[[[4-(5-Chloro-2-hydroxyphenyl)-1,2-dihydro-2-oxo-6-(trifluoromethyl)-3-quinolinyl]thio]acetyl]-1-piperazineacetic acid, ethyl ester]	281	19	46
O=C(CSc1c(-c2cc(Cl)ccc2O)c2cc(C(F)(F)F)ccc2[nH]c1=O)N1CCN(CCO)CC1 [Example 103, 4-[[[4-(5-Chloro-2-hydroxyphenyl)-1,2-dihydro-2-oxo-6-(trifluoromethyl)-3-quinolinyl]thio]acetyl]-1-piperazineethanol]	151	22	22.5
